From ChEMBL document CHEMBL5113529, “Design, Synthesis, and Biological Evaluation of Dual-Target COX-2/CYP51 Inhibitors for the Treatment of Fungal Infectious Diseases” (J Med Chem, 2022)
In brackets after ≈: the same amount, converted by molar mass. Activity calls are given as the source filed them. The rule behind the calls is not given here.

Tests used:
Aspergillus fumigatus [1] = assay: Antifungal activity against Aspergillus fumigatus KM8001 assessed as fungal growth inhibition measured after 72 hrs in presence of fluconazole by double dilution method; settings: KM8001, 72 h
Candida albicans [2] = assay: Antifungal activity against Candida albicans ATCC SC5314 assessed as fungal growth inhibition measured after 72 hrs in presence of fluconazole by double dilution method; settings: ATCC SC5314, 72 h
Candida albicans [3] = assay: Antifungal activity against fluconazole- resistant Candida albicans 17# assessed as fungal growth inhibition measured after 72 hrs in presence of fluconazole by double dilution method
Candida albicans [4] = assay: Antifungal activity against fluconazole- resistant Candida albicans CaR assessed as fungal growth inhibition measured after 72 hrs in presence of fluconazole by double dilution method
[5] = target: T1, Prostaglandin G/H synthase 2 (Homo sapiens, UniProt P35354); assay: Inhibition of COX-2 (unknown origin) using arachidonic acid as substrate preincubated for 10 mins followed by substrate addition and measured after 2 mins by immunoassay
T1 sequence (P35354 whole entry): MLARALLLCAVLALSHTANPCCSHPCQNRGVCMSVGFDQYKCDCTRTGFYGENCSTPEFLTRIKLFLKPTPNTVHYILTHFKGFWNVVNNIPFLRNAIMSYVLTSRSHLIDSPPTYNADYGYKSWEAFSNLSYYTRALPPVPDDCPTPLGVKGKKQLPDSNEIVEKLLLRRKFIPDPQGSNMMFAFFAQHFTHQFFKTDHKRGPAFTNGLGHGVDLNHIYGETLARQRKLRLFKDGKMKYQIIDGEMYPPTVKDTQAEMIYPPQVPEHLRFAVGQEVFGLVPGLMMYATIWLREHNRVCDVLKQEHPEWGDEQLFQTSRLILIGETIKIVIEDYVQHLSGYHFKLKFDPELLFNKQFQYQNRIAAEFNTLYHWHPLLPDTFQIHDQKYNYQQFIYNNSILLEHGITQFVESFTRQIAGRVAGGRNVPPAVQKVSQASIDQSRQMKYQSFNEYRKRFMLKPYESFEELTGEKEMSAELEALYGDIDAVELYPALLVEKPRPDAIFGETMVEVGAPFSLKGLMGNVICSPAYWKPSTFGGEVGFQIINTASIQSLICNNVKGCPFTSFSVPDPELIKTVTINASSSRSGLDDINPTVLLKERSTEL

Candida tropicalis [6] = assay: microbe, parasite or virus in culture; settings: ATCC 1369, 72 h
Description: Antifungal activity against Candida tropicalis ATCC 1369 assessed as fungal growth inhibition measured after 72 hrs in presence of fluconazole by double dilution method

Pichia kudriavzevii [7] = assay: microbe, parasite or virus in culture; settings: ATCC 6258, 72 h
Description: Antifungal activity against Candida krusei ATCC 6258 assessed as fungal growth inhibition measured after 72 hrs in presence of fluconazole by double dilution method

Cryptococcus neoformans [8] = assay: microbe, parasite or virus in culture; settings: ZKCC 2209, 72 h
Description: Antifungal activity against Cryptococcus neoformans ZKCC 2209 assessed as fungal growth inhibition measured after 72 hrs in presence of fluconazole by double dilution method

Candida albicans [9] = assay: microbe, parasite or virus in culture; settings: Candida albicans, 632, 72 h
Description: Antifungal activity against fluconazole- resistant Candida albicans 632 assessed as fungal growth inhibition measured after 72 hrs in presence of fluconazole by double dilution method

Candida albicans [10] = assay: microbe, parasite or virus in culture; settings: Candida albicans, 901, 72 h
Description: Antifungal activity against fluconazole- resistant Candida albicans 901 assessed as fungal growth inhibition measured after 72 hrs in presence of fluconazole by double dilution method

Candida albicans [11] = assay: microbe, parasite or virus in culture; settings: Candida albicans, 904, 72 h
Description: Antifungal activity against fluconazole- resistant Candida albicans 904 assessed as fungal growth inhibition measured after 72 hrs in presence of fluconazole by double dilution method

Cryptococcus neoformans [12] = assay: Antifungal activity against Cryptococcus neoformans ZKCC 2209 assessed as fungal growth inhibition measured after 72 hrs by double dilution method; assay type: functional
Candida albicans [13] = assay: Antifungal activity against Candida albicans ATCC SC5314 assessed as fungal growth inhibition measured after 72 hrs by double dilution method; assay type: functional
Pichia kudriavzevii [14] = assay: Antifungal activity against Candida krusei ATCC 6258 assessed as fungal growth inhibition measured after 72 hrs by double dilution method; assay type: functional
Candida tropicalis [15] = assay: Antifungal activity against Candida tropicalis ATCC 1369 assessed as fungal growth inhibition measured after 72 hrs by double dilution method; assay type: functional
Aspergillus fumigatus [16] = assay: Antifungal activity against Aspergillus fumigatus KM8001 assessed as fungal growth inhibition measured after 72 hrs by double dilution method; assay type: functional
Candida albicans [17] = assay: Antifungal activity against fluconazole- resistant Candida albicans 17# assessed as fungal growth inhibition measured after 72 hrs by double dilution method; assay type: functional
Candida albicans [18] = assay: Antifungal activity against fluconazole -resistant Candida albicans CaR assessed as fungal growth inhibition measured after 72 hrs by double dilution method; assay type: functional
Candida albicans [19] = assay: Antifungal activity against fluconazole -resistant Candida albicans 632 assessed as fungal growth inhibition measured after 72 hrs by double dilution method; assay type: functional
Candida albicans [20] = assay: Antifungal activity against fluconazole -resistant Candida albicans 901 assessed as fungal growth inhibition measured after 72 hrs by double dilution method; assay type: functional
Candida albicans [21] = assay: Antifungal activity against fluconazole -resistant Candida albicans 904 assessed as fungal growth inhibition measured after 72 hrs by double dilution method; assay type: functional
[22] = target: Prostaglandin G/H synthase 1 (Homo sapiens, UniProt P23219); assay: Inhibition of COX-1 (unknown origin) using arachidonic acid as substrate preincubated for 10 mins followed by substrate addition and measured after 2 mins by immunoassay
[23] = target: Lanosterol 14-alpha demethylase (Candida albicans (strain SC5314 / ATCC MYA-2876) (Yeast), UniProt P10613); assay: Inhibition of CYP51 in Candida albicans SC5314 using Eburicol as substrate preincubated for 20 mins followed by substrate addition and measured after 4 mins by HPLC analysis; assay type: single protein
Candida albicans [24] = assay: Antifungal activity against Candida albicans ATCC SC5314 assessed as decrease in fungal cell density measured immediately by fluorescence microscopy (reference value: 126%); assay type: functional; design: scale not given: the % may be the effect or the level left
Candida albicans [25] = assay: Antifungal activity against Candida albicans ATCC SC5314 assessed as decrease in fungal cell density measured at 48 hrs by fluorescence microscopy (reference value: 258%); assay type: functional; design: scale not given: the % may be the effect or the level left
Candida albicans [26] = assay: Antifungal activity against Candida albicans ATCC SC5314 assessed as induction of ROS production by measuring fluorescence intensity incubated for 12 hrs by KGT010-1 staining based fluorescence microscopy; assay type: functional, organism-based

Prostaglandin G/H synthase 1, sequence (P23219 whole entry): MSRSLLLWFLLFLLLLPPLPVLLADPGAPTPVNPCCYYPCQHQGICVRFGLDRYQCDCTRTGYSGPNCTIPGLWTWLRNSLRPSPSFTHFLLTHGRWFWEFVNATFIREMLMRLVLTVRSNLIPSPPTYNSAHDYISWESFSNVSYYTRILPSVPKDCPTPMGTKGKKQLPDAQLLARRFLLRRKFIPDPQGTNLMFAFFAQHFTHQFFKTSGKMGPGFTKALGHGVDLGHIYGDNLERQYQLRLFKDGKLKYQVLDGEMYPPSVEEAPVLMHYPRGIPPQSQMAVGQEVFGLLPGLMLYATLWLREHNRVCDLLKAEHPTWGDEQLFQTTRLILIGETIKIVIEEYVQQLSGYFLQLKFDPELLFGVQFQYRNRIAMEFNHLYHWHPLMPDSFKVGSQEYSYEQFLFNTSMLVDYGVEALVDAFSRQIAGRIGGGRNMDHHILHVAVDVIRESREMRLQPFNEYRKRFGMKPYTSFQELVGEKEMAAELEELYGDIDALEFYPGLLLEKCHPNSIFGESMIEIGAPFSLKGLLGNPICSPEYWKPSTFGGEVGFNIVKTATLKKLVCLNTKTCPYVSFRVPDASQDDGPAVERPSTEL
Lanosterol 14-alpha demethylase, sequence (P10613 whole entry): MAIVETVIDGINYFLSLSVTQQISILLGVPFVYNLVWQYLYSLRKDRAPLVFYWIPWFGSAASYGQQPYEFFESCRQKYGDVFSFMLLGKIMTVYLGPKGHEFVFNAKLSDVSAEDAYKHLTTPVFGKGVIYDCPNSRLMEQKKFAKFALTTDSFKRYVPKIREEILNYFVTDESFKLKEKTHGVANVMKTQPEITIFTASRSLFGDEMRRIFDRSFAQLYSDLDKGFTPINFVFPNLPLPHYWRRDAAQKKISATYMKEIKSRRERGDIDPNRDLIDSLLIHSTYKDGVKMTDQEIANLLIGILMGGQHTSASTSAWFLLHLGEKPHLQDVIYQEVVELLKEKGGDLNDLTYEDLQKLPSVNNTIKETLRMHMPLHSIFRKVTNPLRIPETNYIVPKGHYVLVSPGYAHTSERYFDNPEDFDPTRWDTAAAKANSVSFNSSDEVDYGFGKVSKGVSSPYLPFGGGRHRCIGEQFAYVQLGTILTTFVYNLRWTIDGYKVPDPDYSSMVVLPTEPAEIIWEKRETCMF

| Compound | MIC50 (Cryptococcus neoformans [12]) [µg/mL] | MIC50 (Candida albicans [13]) [µg/mL] | MIC50 (Pichia kudriavzevii [14]) [µg/mL] | MIC50 (Candida tropicalis [15]) [µg/mL] | MIC50 (Aspergillus fumigatus [16]) [µg/mL] | other results |
| --- | --- | --- | --- | --- | --- | --- |
| COc1ccc2cc([C@H](C)C(=O)O)ccc2c1 [NAPROXEN] | – | – | – | – | – | MIC50 (Aspergillus fumigatus [1]): 4 µg/mL; MIC50 (Candida albicans [2]): 0.25 µg/mL; MIC50 (Candida albicans [3]): 4 µg/mL; MIC50 (Candida albicans [4]): 2 µg/mL; IC50 [5]: 2390 nM; MIC50 (Candida tropicalis [6]): 0.5 µg/mL (≈ 2.17 µM); MIC50 (Pichia kudriavzevii [7]): 1 µg/mL (≈ 4.34 µM); MIC50 (Cryptococcus neoformans [8]): 0.25 µg/mL (≈ 1.09 µM); MIC50 (Candida albicans [9]): 4 µg/mL (≈ 17.4 µM); MIC50 (Candida albicans [10]): 4 µg/mL (≈ 17.4 µM); MIC50 (Candida albicans [11]): 2 µg/mL (≈ 8.69 µM) |
| CC(=O)N1CCN(c2ccc(OCC3COC(Cn4ccnc4)(c4ccc(Cl)cc4Cl)O3)cc2)CC1 (stereo not drawn) [KETOCONAZOLE] | 1 (≈ 1.88 µM) | 0.5 (≈ 0.941 µM) | 0.5 (≈ 0.941 µM) | 0.5 (≈ 0.941 µM) | > 8 | MIC50 (Candida albicans [17]): 4 µg/mL (≈ 7.53 µM); MIC50 (Candida albicans [18]): 4 µg/mL (≈ 7.53 µM); MIC50 (Candida albicans [19]): > 8 µg/mL; MIC50 (Candida albicans [20]): 4 µg/mL (≈ 7.53 µM); MIC50 (Candida albicans [21]): > 8 µg/mL |
| COC(=O)[C@@H](Cn1cncn1)NC(=O)[C@@H](C)c1ccc2cc(OC)ccc2c1 | 0.25 (≈ 0.654 µM) | 0.25 (≈ 0.654 µM) | 1 (≈ 2.61 µM) | 0.25 (≈ 0.654 µM) | 4 (≈ 10.5 µM) | – |
| C[C@H](C(=O)NC(Cn1cncn1)C(=O)c1ccccc1)c1ccc(-c2ccccc2)c(F)c1 (stereo partly drawn) | 0.5 (≈ 1.13 µM) | 0.5 (≈ 1.13 µM) | 1 (≈ 2.26 µM) | 0.25 (≈ 0.565 µM) | 2 (≈ 4.52 µM) | – |
| CC(C)OC(=O)[C@@H](Cn1cncn1)NC(=O)[C@@H](C)c1cccc(C(=O)c2ccccc2)c1 | 0.25 (≈ 0.575 µM) | 0.25 (≈ 0.575 µM) | 0.5 (≈ 1.15 µM) | 0.5 (≈ 1.15 µM) | 4 (≈ 9.21 µM) | MIC50 (Candida albicans [17]): 4 µg/mL (≈ 9.21 µM); MIC50 (Candida albicans [18]): 4 µg/mL (≈ 9.21 µM); MIC50 (Candida albicans [19]): > 8 µg/mL; MIC50 (Candida albicans [20]): 4 µg/mL (≈ 9.21 µM); MIC50 (Candida albicans [21]): > 8 µg/mL; IC50 [22]: > 50 µM; IC50 [5]: 3410 nM; IC50 [23]: 200 nM; Activity (Candida albicans [24]): 141%; Activity (Candida albicans [25]): 84%; Activity (Candida albicans [26]): Active |
| COc1ccc2cc([C@H](C)C(=O)N[C@H](Cn3ccnc3)C(=O)NC3CCCCC3)ccc2c1 | 1 (≈ 2.23 µM) | 1 (≈ 2.23 µM) | 0.5 (≈ 1.11 µM) | 0.5 (≈ 1.11 µM) | 4 (≈ 8.92 µM) | Activity (Candida albicans [26]): Active |

Now from value to compound, other results behind:

| MIC50 (Cryptococcus neoformans [12]) [µg/mL] | MIC50 (Candida albicans [13]) [µg/mL] | MIC50 (Pichia kudriavzevii [14]) [µg/mL] | MIC50 (Candida tropicalis [15]) [µg/mL] | MIC50 (Aspergillus fumigatus [16]) [µg/mL] | Compound | other results |
| --- | --- | --- | --- | --- | --- | --- |
| 0.5 (≈ 1.17 µM) | 0.25 (≈ 0.585 µM) | 0.5 (≈ 1.17 µM) | 0.5 (≈ 1.17 µM) | 2 (≈ 4.68 µM) | COc1ccc2cc([C@H](C)C(=O)NC(Cn3ccnc3)C(=O)c3ccccc3)ccc2c1 (stereo partly drawn) | – |
| 4 (≈ 8.65 µM) | 2 (≈ 4.32 µM) | 2 (≈ 4.32 µM) | 1 (≈ 2.16 µM) | > 8 | C[C@H](C(=O)N[C@H](Cn1ccnc1)C(=O)NC1CCCCC1)c1ccc(-c2ccccc2)c(F)c1 | – |
| 1 (≈ 2.31 µM) | 1 (≈ 2.31 µM) | 0.5 (≈ 1.15 µM) | 2 (≈ 4.61 µM) | > 8 | CC(C)OC(=O)[C@@H](Cn1ccnc1)NC(=O)[C@@H](C)c1cccc(C(=O)c2ccccc2)c1 | – |
| 0.5 (≈ 1.22 µM) | 0.5 (≈ 1.22 µM) | 0.25 (≈ 0.611 µM) | 1 (≈ 2.44 µM) | 4 (≈ 9.77 µM) | COc1ccc2cc([C@H](C)C(=O)N[C@H](Cn3ccnc3)C(=O)OC(C)C)ccc2c1 | – |
| 0.5 (≈ 1.13 µM) | 0.5 (≈ 1.13 µM) | 0.25 (≈ 0.566 µM) | 0.5 (≈ 1.13 µM) | > 8 | C[C@H](C(=O)NC(Cn1ccnc1)C(=O)c1ccccc1)c1ccc(-c2ccccc2)c(F)c1 (stereo partly drawn) | – |
| 0.25 (≈ 0.59 µM) | 0.5 (≈ 1.18 µM) | 3 (≈ 7.08 µM) | 1 (≈ 2.36 µM) | > 8 | CC(C)OC(=O)[C@@H](Cn1ccnc1)NC(=O)[C@@H](C)c1ccc(-c2ccccc2)c(F)c1 | – |
